Values belong to the sequence of their own block, whether it stands above or below them.
What was measured:
[1] = biological target: T1, MAL^TIR (Homo sapiens, UniProt P58753); experiment: T‐Surf phage library (P8 and P3) selection against MAL^TIR, four rounds, NGS read counts; assay type: binding; settings: for P8_MAL Rank (after) / P8_MAL Rank (before): P8 library; for P3_MAL Rank (after) / P3_MAL Rank (before): P3 library
T1 construct: MAL (residues 79–221); 6xHis; made in house; host or cells: E. coli BL21 (DE3)
T1 sequence (P58753 79-221): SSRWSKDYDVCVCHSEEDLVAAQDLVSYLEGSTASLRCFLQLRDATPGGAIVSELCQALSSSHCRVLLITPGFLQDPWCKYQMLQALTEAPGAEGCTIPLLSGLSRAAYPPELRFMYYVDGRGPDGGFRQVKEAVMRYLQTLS
Procedure: T‐Surf libraries were screened against the immobilized TIR domains of two major human TLR adaptor proteins, MAL^TIR and MyD88^TIR, allowing cross‐species selection of TIR‐binding motifs with 190 946 TIR‐derived peptides in a single binding assay (Scheme 1). Enriched phage pools from the fourth round of selection were analyzed using NGS after barcoding the peptide‐coding regions of the phage pools.
Phage display screening was performed by coating two wells of a 96‐well plate (Maxisorp, Thermo Fisher Scientific) with 100 µL of 5 µg mL^−1 TIR domains overnight; then, the coated wells were blocked with 200 µL of blocking buffer (0.2% BSA in PBS) and set aside for 1 h at 4 °C with gentle shaking. Next, 100 µL of the phage library was added to the wells and incubated for 1 h at room temperature (RT; 20 – 22 °C) with gentle shaking. The plate was washed four times with PBS containing 0.5% Tween‐20; the bound phages were eluted by adding 100 µL of 100 mM HCl to each well. The elute was neutralized with 10 µL of 1.0 M Tris‐HCl (pH 11.0). E. coli TG1 cells were grown to the log phase (A600 = ≈0.6), and 1 mL of the culture was incubated with 100 µL of the eluted phages for 30 min at 37 °C, with shaking at 200 rpm. Next, 1 µL of M13KO7 helper phages was added, followed by incubation for 45 min at 37 °C, with shaking. Subsequently, the cells were transferred to 25 mL of 2× yeast extract tryptone/carbenicillin/kanamycin medium and incubated overnight at 37 °C with shaking at 200 rpm. The amplified phages were precipitated with 20% PEG‐8000/2.5 M NaCl to be used for the next round of selection.
The naïve T‐Surf libraries in P8 and P3 and the enriched phage pools after four rounds were barcoded for NGS as previously described.^[ [59] ^] Briefly, 5 µL of the phage pool was used as a template for 20 cycles of a 50 µL PCR reaction using […] each of forward and reverse barcoded primers and PrimeSTAR Max DNA Polymerase. The PCR products were purified using Expin Gel SV (GeneAll). The NGS samples were quantified using qPCR, following the qPCR Quantification Protocol Guide (KAPA Library Quantification kits for Illumina Sequencing Platform), and qualified using the TapeStation High Sensitivity D1000 ScreenTape (Agilent Technologies). The indexed libraries were further sequenced by Macrogen (Seoul, Republic of Korea) using the NovaSeq platform (Illumina) with 100 bp paired‐end reads. The reads were demultiplexed by barcodes and filtered for an average Phred quality score of at least 30, followed by trimming the flanking consensus sequences using Cutadapt (version 2.3). Peptide sequence populations were analyzed according to the read counts.

[2] = biological target: T2, MyD88^TIR (Homo sapiens, UniProt Q99836); experiment: T‐Surf phage library (P8 and P3) selection against MyD88^TIR, four rounds, NGS read counts; assay type: binding; settings: for P8_MyD88 Rank (after) / P8_MyD88 Rank (before): P8 library; for P3_MyD88 Rank (after) / P3_MyD88 Rank (before): P3 library; for Population: 4th round of selection against MyD88 TIR, share of NGS reads
T2 construct: MyD88 (residues 148–296); 6xHis; made in house; host or cells: E. coli BL21 (DE3)
T2 sequence (Q99836 148-296): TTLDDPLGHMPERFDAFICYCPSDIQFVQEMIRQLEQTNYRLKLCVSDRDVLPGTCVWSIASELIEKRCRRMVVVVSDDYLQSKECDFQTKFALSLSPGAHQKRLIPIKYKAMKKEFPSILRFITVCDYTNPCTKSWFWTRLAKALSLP
How it was run: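 Read counts come from NGS of phage pools enriched over four selection rounds on the plate‐coated TIR domain (5 µg mL^−1). Each round: 1 h phage binding at room temperature after 0.2% BSA blocking, Tween washes, acid elution, amplification in E. coli TG1 with M13KO7 helper.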

[3] = selection against MAL TIR, rank by count after grouping
[4] = selection against MAL TIR, rank by count before grouping
[5] = selection against MAL, rank after grouping
[6] = selection against MAL, rank before grouping
[7] = P3_MAL: rank by count after grouping
[8] = P3_MAL: rank by count before grouping
[9] = P8_MAL: rank by count after grouping
[10] = P8_MAL: rank by count before grouping
[11] = P8_MyD88: rank by NGS read count after grouping
[12] = P8_MyD88: rank by NGS read count before grouping
[13] = 4R selection against MyD88, rank after grouping
[14] = 4R selection against MyD88, rank before grouping
[15] = selection against MyD88, rank by count after grouping
[16] = selection against MyD88, rank by count before grouping
[17] = selection against MyD88 TIR, rank by count after grouping
[18] = selection against MyD88 TIR, rank by count before grouping
[19] = P8_MyD88: rank by count after grouping
[20] = P8_MyD88: rank by count before grouping
[21] = P3_MyD88 pool: P3 T-Surf phage library

Sequence: LFLWESLKHLLRSDGR
P8_MAL Rank (after) [1, 3]: 232
P8_MAL Rank (before) [1, 4]: 2146

Sequence: WFYERLVSLILRYTKE
P8_MAL Rank (after) [1, 3]: 222
P8_MAL Rank (before) [1, 4]: 1197

Sequence: YAFTGHVPGYLVQRGV
P3_MAL Rank (after) ([1]; selection against MAL, rank by count after grouping): 757
P3_MAL Rank (before) ([1]; selection against MAL, rank by count before grouping): 1361

Sequence: RLLKCTEALHQFHNWV
P3_MAL Rank (after) [1, 5]: 566
P3_MAL Rank (before) [1, 6]: 2482

Sequence: LKVEGWRLALEKAGTL
P3_MAL Rank (after) [1, 5]: 484
P3_MAL Rank (before) [1, 6]: 2258

Sequence: NQWRNALTAAAKLSGG
P3_MAL Rank (after) [1, 5]: 564
P3_MAL Rank (before) [1, 6]: 3384

Sequence: RAFVADLDEALKQRAL
Rank (after) [1, 7]: 182
Rank (before) [1, 8]: 2432

Sequence: AFCIRRLRVKALRFS
P3_MAL Rank (after) [1, 5]: 569
P3_MAL Rank (before) [1, 6]: 1783

Sequence: WDDPWFWDKLHYAMPR
Rank (after) [1, 9]: 463
Rank (before) [1, 10]: 1422

Sequence: SSFTSHLYDRLQRSGI
P3_MAL Rank (after) [1, 3]: 224
P3_MAL Rank (before) [1, 4]: 3203

Sequence: HFFWIQLKNILGENSF
P8_MAL Rank (after) ([1]; 4R selection against MAL, rank after grouping): 610
P8_MAL Rank (before) ([1]; 4R selection against MAL, rank before grouping): 2417

Sequence: NYASSSWALNELLEILK
P8_MyD88 Rank (after) ([2]; selection against MyD88, rank after grouping): 506
P8_MyD88 Rank (before) ([2]; selection against MyD88, rank before grouping): 3849

Sequence: DPQVPEWFYNRLFCQL
Rank (after) [2, 11]: 959
Rank (before) [2, 12]: 2651

Sequence: IDDDHLYAALVQAGIL
P8_MyD88 Rank (after) [2, 13]: 639
P8_MyD88 Rank (before) [2, 14]: 3622

Sequence: WALDELLKILHADETM
P8_MyD88 Rank (after) [2, 15]: 687
P8_MyD88 Rank (before) [2, 16]: 1492

Sequence: ELDGDFGRNLWDLWRL
P8_MyD88 Rank (after) [2, 17]: 249
P8_MyD88 Rank (before) [2, 18]: 477

Sequence: LGYHWIDWAYFVGIEE
P8_MyD88 Rank (after) [2, 17]: 242
P8_MyD88 Rank (before) [2, 18]: 3250

Sequence: YLRADDNDYYWVTHVLLRHL
Rank (after) [2, 11]: 983
Rank (before) [2, 12]: 2070

Sequence: QYSHTLLAHTSKFPDE
Rank (after) ([2]; P3_MyD88: rank by count after grouping): 432
Rank (before) ([2]; P3_MyD88: rank by count before grouping): 2847

Sequence: RTLLENLWASVDISHK
P3_MyD88 Rank (after) [2, 15]: 732
P3_MyD88 Rank (before) [2, 16]: 2643

Sequence: YASSSWALDELLQILHARELF
Rank (after) [2, 19]: 175
Rank (before) [2, 20]: 207

Sequence: NYGSSSWALEELAHIIE
P8_MyD88 Rank (after) [2, 13]: 665
P8_MyD88 Rank (before) [2, 14]: 3831

Sequence: LVAHELLKKMKIFATI
P3_MyD88 Rank (after) [2, 17]: 232
P3_MyD88 Rank (before) [2, 18]: 2275

Continued, values first:

Rank (after) [1, 9]: 124
Rank (before) [1, 10]: 2128
Sequence: LFFWKSLKQLLRSDSR

P8_MAL Rank (after) [1, 3]: 257
P8_MAL Rank (before) [1, 4]: 1607
Sequence: AFFWAQLKRAGQSDD

P8_MAL Rank (after) [1, 3]: 213
P8_MAL Rank (before) [1, 4]: 1303
Sequence: WFYESLVSMIMRDTKV

Rank (after) [1, 7]: 454
Rank (before) [1, 8]: 2967
Sequence: MSMRPGDRLQRSGI

Rank (after) [1, 7]: 419
Rank (before) [1, 8]: 3195
Sequence: SSFRNDLWRLLELSKK

Rank (after) [1, 9]: 154
Rank (before) [1, 10]: 1718
Sequence: AFFWQQLKSVPGNPTM

Rank (after) [1, 9]: 399
Rank (before) [1, 10]: 1623
Sequence: AFFWAQLKSVLGNLTK

Rank (after) [2, 11]: 1019
Rank (before) [2, 12]: 3427
Sequence: PQDLDWFYERLESLF

P8_MyD88 Rank (after) [2, 13]: 628
P8_MyD88 Rank (before) [2, 14]: 2733
Sequence: DPQDLAWVYERLVSPV

Rank (after) [2, 19]: 119
Rank (before) [2, 20]: 128
Population ([2]; P8_MyD88 pool: P8 T-Surf phage library): 0.015%
Sequence: DVLYWALTEAGIRVFR

Population [2, 21]: 0.0032%
Sequence: KEVEGWRDALTKVATI

Population [2, 21]: 0.00349%
Sequence: SSFREGLWRLLELSEK

Rank (after) [2, 11]: 944
Rank (before) [2, 12]: 3764
Sequence: SPLSYMWLDELVEIME

Source: publication PMC11714206, “Massively Parallel Screening of Toll/Interleukin‐1 Receptor (TIR)‐Derived Peptides Reveals Multiple Toll‐Like Receptors (TLRs)‐Targeting Immunomodulatory Peptides” (Advanced Science, 2024)
